Counter-ions that a name gives are not always drawn.
Assays:
Type in all cases: biochemical
thrombin (IIa) = thrombin (IIa) (Homo sapiens, UniProt P00734); experiment: Assay of free thrombin (IIa): initial rate of cleavage of peptide p-nitroanilide S2302; details: Tris-HCl pH 7.5, 300 μM S2302, 20 nM thrombin, room temperature
Method: (§1) There are a number of tests which illustrate the activity of the compounds of this invention. Due to the light sensitivity of the test Compounds, experiments were performed under minimally lighted conditions. The tests follow. ASSAY OF FREE FACTOR XA AND THROMBIN Activity of Factor Xa and thrombin (IIa) were determined as the initial rate of cleavage of peptide p-nitroanilide by the enzymes. […] Initial rate of the first 2 minutes was used for calculation of the enzyme activities.

human FXa = target: T1, human FXa (Homo sapiens, UniProt P00742); experiment: In vitro plasma matrix effect on anti-FX activity (compounds diluted in 100% rat plasma); details: compound in 100% rat plasma, 30 min incubation, S2222, pH 7.5, room temperature, read-out: Ki (Xa)
T1 construct: 6 nM of human FXa; purchased Enzyme Research Lab; USA
Method: (§2) There are a number of tests which illustrate the activity of the compounds of this invention. Due to the light sensitivity of the test Compounds, experiments were performed under minimally lighted conditions. The tests follow.
IN VITRO PLASMA MATRIX EFFECT ON ANTI-FX ACTIVITY:
Compound stock solutions (10 mM in DMSO) were diluted in 100% rat plasma in a series of 1 to 3 dilutions in the following concentration ranges: (1) from 300 μM to 1.23 μM; (2) from 10 μM to 0.041 μM; (3) from 100 μM to 0.412 μM. After 30 minutes incubation (in dark) at room temperature, 20 μL of diluted compounds (in rat plasma) were added in duplicate to a 96-well flat-bottom microtiter plate (Dynatech Laboratories, USA). Thirty microliter of assay buffer containing 50 mM Tris HCl, pH 7.5, […], and 0.1% polyethylene glycol 6000 was added to each sample well followed by 100 ul of 6 nM of human FXa (in assay buffer) (Enzyme Research Lab. USA). The plate was mixed in a plate shaker for about 30 seconds. The reaction was started by the addition of 50 ul of 656 uM of chromogenic substrate S2222 in assay buffer (Pharmacia Hepar Inc. USA). FXa activity was measured at […] at room temperature for five minutes at 10 seconds interval in a THERMOmax microtiter plate reader (Molecular Devices). An internal standard was assayed in parallel as control. Initial rate as mOD/min was determined using OD readings in the first two minutes of the reaction. IC50 values were determined with a 4-parameter curve fit program provided by the Molecular Devices' software, SOFTmax 2.32. Ki values were then calculated with the following equation: Ki=IC50 /(1+[S]/Km). […]

[1] = system: citrated plasma clotting (prothrombin time); experiment: Coagulation assay: prothrombin time (PT); details: human plasma, Rabbit Brain Thromboplastin, 37° C.
Method: as §2
(§3) Two coagulation assays, the activated partial thromboplastin time (APTT) and the prothrombin time (PT), were used to evaluate the compounds. An Electra 900C coagulometer with the software package was used. The Actin Reagent (APTT) or Rabbit Brain Thromboplastin (PT) is added to citrated plasma sample in equal volumes (100 μL each) and allowed to incubate for 5 min. at 37° C. […] (100 μL) is added and time to clot noted. Dilution series for compounds undergoing testing were made in human plasma prior to assay.

Factor Xa (HFXa) = Factor Xa (HFXa) (Homo sapiens, UniProt P00742); experiment: Assay of free Factor Xa: initial rate of cleavage of peptide p-nitroanilide S-2222; details: free FXa, Tris-HCl pH 7.5, 164 μM S-2222, 3 nM HFXa, room temperature
Method: as §1

[2] = system: citrated plasma clotting (activated partial thromboplastin time); experiment: Coagulation assay: activated partial thromboplastin time (APTT); details: human plasma, Actin Reagent, 37° C.
Method: as §2, §3

Factor Xa (HFXa), sequence (P00742 235-488 limits assumed): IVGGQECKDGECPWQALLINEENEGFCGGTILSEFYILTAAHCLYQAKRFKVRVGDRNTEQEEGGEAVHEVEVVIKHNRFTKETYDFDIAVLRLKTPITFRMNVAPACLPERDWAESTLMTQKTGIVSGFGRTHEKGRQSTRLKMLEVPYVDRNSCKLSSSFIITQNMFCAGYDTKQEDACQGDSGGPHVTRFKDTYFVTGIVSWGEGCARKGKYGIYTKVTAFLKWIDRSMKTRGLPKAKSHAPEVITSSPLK
Factor Xa (HFXa), sequence (P00742 41-179 limits assumed): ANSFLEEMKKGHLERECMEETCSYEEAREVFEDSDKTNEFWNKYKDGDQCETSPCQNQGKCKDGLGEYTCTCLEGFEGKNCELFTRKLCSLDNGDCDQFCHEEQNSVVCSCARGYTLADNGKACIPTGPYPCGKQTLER
T1 sequence (P00742 235-488 limits assumed): as the sequence (P00742 235-488 limits assumed) above
T1 sequence (P00742 41-179 limits assumed): as the sequence (P00742 41-179 limits assumed) above

| Ki (thrombin (IIa)) [nM] | Ki (human FXa) [nM] | Ki (Factor Xa (HFXa)) [nM] | SMILES | PT: dose of compound required to produce a 2 fold increase in clot time [1] [µg/mL] | APTT: dose of compound required to produce a 2 fold increase in clot time [2] [µg/mL] |
| --- | --- | --- | --- | --- | --- |
| 6200 ± 530 | 27000 ± 2600 | 16500 ± 800 | N=C(N)c1ccc(/C=C2\CCCC/C(=C\c3ccc(C(=N)N)cc3)C2=O)cc1 [EX. 1 E,E, E,E-1,3-bis[(4'-(amino(imino)methyl)phenyl)methylene]-2-oxocycloheptane, hydrochloride] | > 30 | 17.5 |
| 132 ± 2 | 210 ± 34 | 201 ± 57 | N=C(N)c1ccc(/C=C2/CCCC/C(=C\c3ccc(C(=N)N)cc3)C2=O)cc1 [EX. 2 Z,E, Z,E-1,3-bis[(4'-(amino(imino)methyl)phenyl)methylene]-2-oxocycloheptane, trifluoroacetate] | 3.2 | 1.6 |
| 525 | 3.45 ± 0.07 | 1.12 ± 0.28 | N=C(N)c1ccc(/C=C2/CCCC/C(=C/c3ccc(C(=N)N)cc3)C2=O)cc1 [EX. 2 Z,Z, Z,Z-1,3-bis[(4'-(amino(imino)methyl)phenyl)methylene]-2-oxocycloheptane, trifluoroacetate] | 0.3 | 0.3 |
| 2970 ± 480 |  | 5650 ± 350 | N=C(N)c1ccc(/C=C2\CCC/C(=C\c3ccc(C(=N)N)cc3)C2=O)cc1 [EX. 3 E,E, E,E-1,3-bis[(4'-(amino(imino)methyl)phenyl)methylene]-2-oxocyclohexane, phosphate] |  |  |
| 115 ± 71 |  | 422 ± 167 | N=C(N)c1ccc(/C=C2/CCC/C(=C\c3ccc(C(=N)N)cc3)C2=O)cc1 [EX. 4 Z,E, Z,E-1,3-bis[(4'-(amino(imino)methyl)phenyl)methylene]-2-oxocyclohexane, trifluoroacetate] |  |  |
| 1340 ± 370 |  | 28.9 ± 7 | N=C(N)c1ccc(/C=C2/CCC/C(=C/c3ccc(C(=N)N)cc3)C2=O)cc1 [EX. 4 Z,Z, Z,Z-1,3-bis[(4'-(amino(imino)methyl)phenyl)methylene]-2-oxocyclohexane, trifluoroacetate] |  |  |
| > 5000 |  | > 5000 | N=C(N)c1ccc(/C=C2\CCCC/C(=C\c3ccc(C(N)=O)cc3)C2=O)cc1 [EX. 5 E,E, E,E-1-(4'-(amino(imino)methyl)phenyl)methylene-3-(4'-(aminocarbonyl)phenyl)methylene-2-oxocycloheptane, hydrochloride] |  |  |
| 380 |  | 1850 ± 10 | N=C(N)c1ccc(C=C2CCCCC(=Cc3ccc(C(N)=O)cc3)C2=O)cc1 [EX. 6 Z,E:E,Z, Z,E/E,Z-1-(4'-(amino(imino)methyl)phenyl)methylene-3-(4'-(aminocarbonyl)phenyl)-methylene-2-oxocycloheptane, trifluoroacetate] |  |  |
| 107 ± 2 |  | 52.1 ± 2.5 | N=C(N)c1ccc(/C=C2/CCCC/C(=C/c3ccc(C(N)=O)cc3)C2=O)cc1 [EX. 6 Z,Z, Z,Z-1-(4'-(amino(imino)methyl)phenyl)methylene-3-(4'-(aminocarbonyl)phenyl)-methylene-2-oxocycloheptane, trifluoroacetate] |  |  |
| 12900 |  | 29000 | CNC(=N)c1ccc(/C=C2\CCCC/C(=C\c3ccc(C(=N)N)cc3)C2=O)cc1 [EX. 7 E,E, E,E-1-(4'-(amino(imino)methyl)phenyl)methylene-3-(4'-(N'-methylamino-(imino)methyl)phenyl)methylene-2-oxocycloheptane, hydrochloride] |  |  |
| 363 ± 19 |  | 504 ± 44 | CNC(=N)c1ccc(C=C2CCCCC(=Cc3ccc(C(=N)N)cc3)C2=O)cc1 [EX. 8 Z,E:E,Z, Z,E/E,Z-1-(4'-(amino(imino)methyl)phenyl)methylene-3-(4'-(N'-methylamino (imino)methyl)phenyl)methylene-2-oxocycloheptane, trifluoroacetate] |  |  |
| 1580 ± 290 |  | 12.3 ± 1.8 | C/N=C(\N)c1ccc(/C=C2/CCCC/C(=C/c3ccc(C(=N)N)cc3)C2=O)cc1 [EX. 8 Z,Z, Z,Z-1-(4'-(amino(imino)methyl)phenyl)methylene-3-(4'-(N'-methylamino-(imino)methyl)phenyl)methylene-2-oxocycloheptane, trifluoroacetate] |  |  |
| 1390 ± 140 |  | 17.8 ± 2.6 | CN(C)C(=N)c1ccc(/C=C2/CCCC/C(=C/c3ccc(C(=N)N)cc3)C2=O)cc1 [EX. 10 Z,Z, Z,Z-1-(4'-(amino(imino)methyl)phenyl)methylene-3-(4'-(N',N'-dimethylamino (imino)methyl)phenyl)methylene-2-oxocycloheptane] |  |  |
| 120000 ± 7000 |  | 29.1 ± 5.8 | N=C(N)c1ccc(/C=C2/CC(C(=O)O)C/C(=C/c3ccc(C(=N)N)cc3)C2=O)cc1 (stereo not shown) [EX. 11 Z,Z, Z,Z-3,5-bis[(4'-(amino(imino)methyl)phenyl)methylene]-4-oxocyclohexanoic acid, trifluoroacetate] |  |  |
| 2140 ± 150 |  | 1390 ± 210 | N=C(N)c1cccc(/C=C2\CCCC/C(=C\c3cccc(C(=N)N)c3)C2=O)c1 [EX. 12 E,E, E,E-1,3-bis[(3'-(amino(imino)methyl)phenyl)methylene]-2-oxocycloheptane, dihydrochloride] |  |  |
| 1000 ± 30 |  | 143 ± 38 | N=C(N)c1cccc(/C=C2/CCCC/C(=C\c3cccc(C(=N)N)c3)C2=O)c1 [EX. 13 Z,E, Z,E-1,3-bis[(3'-(amino(imino)methyl)phenyl)methylene]-2-oxocycloheptane, trifluoroacetate] |  |  |
| 1360 ± 500 |  | 5.63 ± 1.97 | N=C(N)c1cccc(/C=C2/CCCC/C(=C/c3cccc(C(=N)N)c3)C2=O)c1 [EX. 13 Z,Z, Z,Z-1,3-bis[(3'-(amino(imino)methyl)phenyl)methylene]-2-oxocycloheptane, trifluoroacetate] |  |  |
| 146 ± 27 |  | 509 ± 26 | N=C(N)c1ccc(/C=C2/CCCCCCC/C(=C\c3ccc(C(=N)N)cc3)C2=O)cc1 [EX. 14 Z,E] |  |  |
| 741 ± 161 |  | 111 ± 2 | N=C(N)c1ccc(/C=C2/CCCCCCC/C(=C/c3ccc(C(=N)N)cc3)C2=O)cc1 [EX. 14 Z,Z] |  |  |
| 198 ± 18 |  | 128 ± 25 | N=C(N)c1ccc(/C=C2/CCCCC/C(=C\c3ccc(C(=N)N)cc3)C2=O)cc1 [EX. 15 Z,E, Z,E-1,3-bis[(4'-(amino(imino)methyl)phenyl)methylene]-2-oxocyclooctane] |  |  |
| 619 ± 193 |  | 13.7 ± 5.5 | N=C(N)c1ccc(/C=C2/CCCCC/C(=C/c3ccc(C(=N)N)cc3)C2=O)cc1 [EX. 15 Z,Z, Z,Z-1,3-bis[(4'-(amino(imino)methyl)phenyl)methylene]-2-oxocyclooctane] |  |  |
| 347 ± 35 |  | 324 ± 48 | N=C(N)c1ccc(/C=C2/CCCCCC/C(=C\c3ccc(C(=N)N)cc3)C2=O)cc1 [EX. 16 Z,E, Z,E-1,3-bis[(4'-(amino(imino)methyl)phenyl)methylene]-2-oxocyclononane] |  |  |
| 527 ± 52 |  | 6 ± 2.8 | N=C(N)c1ccc(/C=C2/CCCCCC/C(=C/c3ccc(C(=N)N)cc3)C2=O)cc1 [EX. 16 Z,Z, Z,Z-1,3-bis[(4'-(amino(imino)methyl)phenyl)methylene]-2-oxocyclononane] |  |  |

Reference: patent publication US5633381A, “(Z,Z), (Z,E) and (E,Z) isomers of substituted bis(phenylmethylene)cycloketones” (Berlex Laboratories, Inc., priority 1994, dated 1997)
